Experiment: Pharmacokinetic study for PTG-630 (IV and PO): plasma, whole blood, tissues, urine
Assay type: in vivo, Sprague Dawley rats
Description: The samples were analyzed in two batches with standards and QCs prepared on rat plasma and rat urine. Analyst® 1.6 (SCIEX) software was used for statistical analysis of bioanalytical data. […] Dose samples collected at 0.083 h-6 h postdose were diluted 4 times with SD rat plasma prior to plating. Twenty-four (24) hours plasma samples were assayed without dilution. […] Two sciatic nerve samples were excluded from analysis, due to the insufficient sample size. […] The 12 non-cannulated animals were arbitrarily assigned to groups upon arrival and housed together throughout the experiment. The animals were acclimated to their designated housing for at least 24 hours before the first day of dosing. […] Blood samples were collected via cannula from IV dosed rats or by cardiac stick from PO dosed rats at the specified time points for sampling pharmacokinetics. Blood was collected into K2EDTA tubes. Tubes were mixed gently after blood collection, chilled and centrifuged at 3000 rpm, 4° C. within 30 minutes upon collection. The samples were centrifuged at 4° C. and the resultant plasma separated. […] Urine from Group 1 was collected via polycarbonate tubes from rats placed in drug metabolism cages. Urine was maintained and room temperature through the collection period.

[1] = PTG-4997 in kidneys after PTG-630 PO

Q: Which results are given for `Cc1ncc(CO)c(-c2ncc[nH]2)c1O` [PTG-4997]?
A: MRT [1]: 11.6 h; Tmax [1]: 6 h; half-life [1]: 2.36 h; PTG-4997 (metabolite) concentration (Table 2, for PTG-4997 (metabolite) after PTG-630 IV 5 mg/kg, plasma, 0.083 h postdose, individual animals): <BLQ; PTG-4997 (metabolite) concentration (Table 2, for PTG-4997 (metabolite) after PTG-630 IV 5 mg/kg, plasma, 0.5 h postdose, individual animals, 5 mg/kg): <BLQ; PTG-4997 (metabolite) concentration (Table 2, for PTG-4997 (metabolite) after PTG-630 IV 5 mg/kg, plasma, 1 h postdose, individual animals): <BLQ; PTG-4997 (metabolite) concentration (Table 2, for PTG-4997 (metabolite) after PTG-630 IV 5 mg/kg, plasma, 24 h postdose, individual animals): <BLQ; PTG-4997 (metabolite) concentration (Table 2, for PTG-4997 (metabolite) after PTG-630 PO 100 mg/kg, brain, 0.5 h postdose, Mean): <BLQ; PTG-4997 (metabolite) concentration (Table 2, for PTG-4997 (metabolite) after PTG-630 PO 100 mg/kg, brain, 0.5 h postdose, individual animals): <BLQ; PTG-4997 (metabolite) concentration (Table 2, for PTG-4997 (metabolite) after PTG-630 PO 100 mg/kg, brain, 1 h postdose, Mean): <BLQ; PTG-4997 (metabolite) concentration (Table 2, for PTG-4997 (metabolite) after PTG-630 PO 100 mg/kg, brain, 1 h postdose, individual animals): <BLQ; PTG-4997 (metabolite) concentration (Table 2, for PTG-4997 (metabolite) after PTG-630 PO 100 mg/kg, brain, 2 h postdose, Mean): <BLQ; PTG-4997 (metabolite) concentration (Table 2, for PTG-4997 (metabolite) after PTG-630 PO 100 mg/kg, brain, 2 h postdose, individual animals): <BLQ; PTG-4997 (metabolite) concentration (Table 2, for PTG-4997 (metabolite) after PTG-630 PO 100 mg/kg, brain, 4 h postdose, Mean): <BLQ; PTG-4997 (metabolite) concentration (Table 2, for PTG-4997 (metabolite) after PTG-630 PO 100 mg/kg, brain, 4 h postdose, individual animals): <BLQ; PTG-4997 (metabolite) concentration (Table 2, for PTG-4997 (metabolite) after PTG-630 PO 100 mg/kg, brain, 6 h postdose, Mean): <BLQ; PTG-4997 (metabolite) concentration (Table 2, for PTG-4997 (metabolite) after PTG-630 PO 100 mg/kg, brain, 6 h postdose, individual animals): <BLQ; PTG-4997 (metabolite) concentration (Table 2, for PTG-4997 (metabolite) after PTG-630 PO 100 mg/kg, brain, 24 h postdose, Mean): <BLQ; PTG-4997 (metabolite) concentration (Table 2, for PTG-4997 (metabolite) after PTG-630 PO 100 mg/kg, brain, 24 h postdose, individual animals): <BLQ; PTG-4997 (metabolite) concentration (Table 2, for PTG-4997 (metabolite) after PTG-630 PO 100 mg/kg, kidney, 0.5 h postdose, Mean): 86.5 ng/mL; PTG-4997 (metabolite) concentration (Table 2, for PTG-4997 (metabolite) after PTG-630 PO 100 mg/kg, kidney, 1 h postdose, Mean): 0 ng/mL; PTG-4997 (metabolite) concentration (Table 2, for PTG-4997 (metabolite) after PTG-630 PO 100 mg/kg, kidney, 2 h postdose, Mean): 81 ng/mL; PTG-4997 (metabolite) concentration (Table 2, for PTG-4997 (metabolite) after PTG-630 PO 100 mg/kg, kidney, 4 h postdose, Mean): 128 ng/mL; PTG-4997 (metabolite) concentration (Table 2, for PTG-4997 (metabolite) after PTG-630 PO 100 mg/kg, kidney, 6 h postdose, Mean): 182.5 ng/mL; PTG-4997 (metabolite) concentration (Table 2, for PTG-4997 (metabolite) after PTG-630 PO 100 mg/kg, kidney, 24 h postdose, Mean): 106 ng/mL; PTG-4997 (metabolite) concentration (Table 2, for PTG-4997 (metabolite) after PTG-630 PO 100 mg/kg, liver, 0.5 h postdose, Mean): <BLQ; PTG-4997 (metabolite) concentration (Table 2, for PTG-4997 (metabolite) after PTG-630 PO 100 mg/kg, liver, 0.5 h postdose, individual animals): <BLQ; PTG-4997 (metabolite) concentration (Table 2, for PTG-4997 (metabolite) after PTG-630 PO 100 mg/kg, liver, 1 h postdose, Mean): <BLQ; PTG-4997 (metabolite) concentration (Table 2, for PTG-4997 (metabolite) after PTG-630 PO 100 mg/kg, liver, 1 h postdose, individual animals): <BLQ; PTG-4997 (metabolite) concentration (Table 2, for PTG-4997 (metabolite) after PTG-630 PO 100 mg/kg, liver, 2 h postdose, Mean): <BLQ; PTG-4997 (metabolite) concentration (Table 2, for PTG-4997 (metabolite) after PTG-630 PO 100 mg/kg, liver, 2 h postdose, individual animals): <BLQ; PTG-4997 (metabolite) concentration (Table 2, for PTG-4997 (metabolite) after PTG-630 PO 100 mg/kg, liver, 4 h postdose, Mean): <BLQ; PTG-4997 (metabolite) concentration (Table 2, for PTG-4997 (metabolite) after PTG-630 PO 100 mg/kg, liver, 4 h postdose, individual animals): <BLQ; PTG-4997 (metabolite) concentration (Table 2, for PTG-4997 (metabolite) after PTG-630 PO 100 mg/kg, liver, 6 h postdose, Mean): <BLQ; PTG-4997 (metabolite) concentration (Table 2, for PTG-4997 (metabolite) after PTG-630 PO 100 mg/kg, liver, 6 h postdose, individual animals): <BLQ; PTG-4997 (metabolite) concentration (Table 2, for PTG-4997 (metabolite) after PTG-630 PO 100 mg/kg, liver, 24 h postdose, Mean): <BLQ; PTG-4997 (metabolite) concentration (Table 2, for PTG-4997 (metabolite) after PTG-630 PO 100 mg/kg, liver, 24 h postdose, individual animals): <BLQ; PTG-4997 (metabolite) concentration (Table 2, for PTG-4997 (metabolite) after PTG-630 PO 100 mg/kg, muscle, 0.5 h postdose, Mean): <BLQ; PTG-4997 (metabolite) concentration (Table 2, for PTG-4997 (metabolite) after PTG-630 PO 100 mg/kg, muscle, 0.5 h postdose, individual animals): <BLQ; PTG-4997 (metabolite) concentration (Table 2, for PTG-4997 (metabolite) after PTG-630 PO 100 mg/kg, muscle, 1 h postdose, Mean): <BLQ; PTG-4997 (metabolite) concentration (Table 2, for PTG-4997 (metabolite) after PTG-630 PO 100 mg/kg, muscle, 1 h postdose, individual animals): <BLQ

From patent US12139472B2, “Inhibitors of advanced glycation end products” (priority 2019, dated 2024)
